In patent US20210292843A1, “TREATMENT OF DISEASES ASSOCIATED WITH ACTIVATED IRAK” (CHILDREN'S HOSPITAL MEDICAL CENTER, priority 2016, published 2021):

Legend:
Assay type in all cases: cell-based, human
K562 S34F-U2AF1 cells [1] = assay: Clonogenic progenitor assay in methylcellulose; settings: 10 uM inhibitor, colonies counted after 7 days, S34F-U2AF1 compared to WT-U2AF1 cells (FIG. 13C)
From the text: (§1) Doxycycline-inducible FLAG-tagged WT U2AF1 or FLAG-tagged mutant U2AF1(S34F) lentiviral expression plasmids have been previously described, and lentivirus was generated in 293T cells with the packaging plasmids pMD-G, pMD-Lg and REV. Concentrated virus (multiplicity of infection (MOI) of 3 for K562, MOI of 5 for OCI-AML3) was used to transduce K562 cells (ATCC, CCL243) or OCI-AML3 (DSMZ, ACC 582). Transduced cells (marked by green fluorescent protein) were isolated by flow cytometry cell sorting. Expression of mutant or WT U2AF1 was induced using the indicated concentrations of doxycycline hyclate (Sigma) in water. (Shirai C, et al., 2017)
Clonogenic progenitor frequencies were determined by plating 1×10^3 K562 cells/ml in methylcellulose (Methocult H4236; Stem Cell Technologies). Colonies were scored after 7 days.
(§2) It was then investigated in whether or not there was a therapeutic opportunity in a subset of patients with increased IRAK4-Long expression, since expression of IRAK4-Long is associated with poor AML patient outcome (as described in Example 4, above). […] K562 WT- and S34F-U2AF1 were treated with DMSO or 10 uM IRAK1/4 inhibitor for 7 days, and cell viability was monitored by trypan blue exclusion. […]
(§3) Viability was measured by Trypan Blue staining. […] Colonies were counted after 7 days.

K562 S34F-U2AF1 cells [2] = assay: Growth curve, cell viability by trypan blue exclusion; settings: 10 uM inhibitor vs DMSO, S34F-U2AF1 cells (FIG. 13B)
From the text: as §1
(§4) Trypan blue exclusion was measured using an automated cell counter (BioRad, Hercules, Calif., TC10). Cells were replenished with fresh media, doxycycline and drug every fifth day.
as §2, §3

K562 WT-U2AF1 cells = assay: as above; settings: 10 uM inhibitor vs DMSO, 7 days, WT-U2AF1 cells (FIG. 13B)
From the text: as §1, §4, §2, §3

[3] = system: phospho-IRAK1, phospho-pIKK, and phospho-p65; assay: Immunoblotting of innate immune signaling after IRAK1/4 inhibitor treatment; settings: S34F-U2AF1 K562 cells; IRAK1/4 inhibitor for 1 hour and 2 hours; immunoblot (FIG. 13A)
Protocol: Total protein lysates were obtained from cells by lysing the samples in cold RIPA buffer (50 mM Tris-HCl, 150 mM NaCl, 1 mM EDTA, 1% Triton X-100 and 0.1% SDS), in the presence of PMSF, sodium orthovanadate, protease and phosphatase inhibitors. Protein concentration was evaluated by a BCA assay (32106, Pierce, Rockford, Ill.). The bound proteins were separated by SDS-polyacrylamide gel electrophoresis, transferred to nitrocellulose membranes, and analyzed by immunoblotting. Western blot analysis was performed with the following antibodies: IRAK4 C-term (ab5985; Abcam, Cambridge, UK), IRAK N-term (4363; Cell Signaling Technology), GAPDH (5174; Cell Signaling Technology), Flag (F3165; Sigma, St. Louis, Mo.), IRAK1 (sc-7883; Santa Cruz, Dallas, Tex.), phospho-IRAK1 (T209) (A1074; AssaybioTech, Sunnyvale, Calif.), U2AF1 (ab86305; Abeam), IKKβ (2370; Cell Signaling Technology), phospho-IKKα/β (2697; Cell Signaling Technology), p38 MAPK (9212; Cell Signaling Technology), phopho-p38 MAPK (4631; Cell Signaling Technology), ERK (4695; Cell Signaling Technology), phospho-ERK (4377; Cell Signaling Technology), p65 (8242; Cell Signaling Technology) and phospho-p65 (3033; Cell Signaling Technology).
Doxycycline-inducible FLAG-tagged WT U2AF1 or FLAG-tagged mutant U2AF1(S34F) lentiviral expression plasmids have been previously described, and lentivirus was generated in 293T cells with the packaging plasmids pMD-G, pMD-Lg and REV. Concentrated virus (multiplicity of infection (MOI) of 3 for K562, MOI of 5 for OCI-AML3) was used to transduce K562 cells (ATCC, CCL243) or OCI-AML3 (DSMZ, ACC 582). […]
as §2, §3

O=C(Nc1nc2ccccc2n1CCN1CCOCC1)c1cccc([N+](=O)[O-])c1 [IRAK1/4 inhibitor]
colonies in methylcellulose (leukemic progenitor function) (K562 S34F-U2AF1 cells [1]): significantly fewer colonies
cell viability / survival over 7 days (K562 S34F-U2AF1 cells [2]): significantly reduced survival
decrease in proliferation and viability (K562 WT-U2AF1 cells): not seen
phospho-IRAK1 level [3]: returned to normal
phospho-p65 level [3]: returned to normal
phospho-pIKK level [3]: returned to normal
